Experiments:
Format in all cases: in vivo
[1] = tested on: green foxtail (Setaria viridis, SETVI); test: Post-emerge greenhouse herbicide test, phytotoxicity rating; settings: Setaria viridis, post-emergence, 336 h, 14 days after application, scale 0-100; for pest or weed control at 63 g/ha: rate 63 g ai/ha; for pest or weed control at 500 g/ha: rate 500 g ai/ha
How it was run: (§1)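 Scores use a 0 (no damage) to 100 (complete kill) scale, taken 14 days after a foliar spray. Acetone solutions with 0.25% v/v non-ionic surfactant were applied by track sprayer at 187 l/ha and 63-1000 g ai/ha to bottom-watered 2-3 leaf plants.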

[2] = tested on: large crabgrass (Digitaria sanguinalis, DIGSA); test: as above; settings: Digitaria sanguinalis, post-emergence, 336 h, 14 days after application, scale 0-100; for pest or weed control at 63 g/ha: rate 63 g ai/ha; for pest or weed control at 500 g/ha: rate 500 g ai/ha
How it was run: as §1

[3] = tested on: sicklepod (Cassia obtusifolia, CASOB); test: as above; settings: Senna obtusifolia, post-emergence, 336 h, 14 days after application, scale 0-100; for pest or weed control at 63 g/ha: rate 63 g ai/ha; for pest or weed control at 500 g/ha: rate 500 g ai/ha
How it was run: as §1

[4] = tested on: Johnsongrass (Sorghum halepense, SORHA); test: as above; settings: Sorghum halepense, post-emergence, 336 h, 14 days after application, scale 0-100; for pest or weed control at 63 g/ha: rate 63 g ai/ha; for pest or weed control at 500 g/ha: rate 500 g ai/ha
How it was run: as §1

[5] = tested on: lambsquarters (Chenopodium album, CHEAL); test: as above; settings: Chenopodium album, post-emergence, 336 h, 14 days after application, scale 0-100; for pest or weed control at 63 g/ha: rate 63 g ai/ha; for pest or weed control at 500 g/ha: rate 500 g ai/ha
How it was run: as §1

[6] = tested on: redroot pigweed (Amaranthus retroflexus, AMARE); test: as above; settings: Amaranthus retroflexus, post-emergence, 336 h, 14 days after application, scale 0-100; for pest or weed control at 63 g/ha: rate 63 g ai/ha; for pest or weed control at 500 g/ha: rate 500 g ai/ha
How it was run: as §1

[7] = tested on: green foxtail (Setaria viridis, SETVI); test: Pre-emerge greenhouse herbicide test, phytotoxicity rating; settings: Setaria viridis, pre-emergence, 336 h, 14 days after application, rating scale 0-100; for pest or weed control at 125 g/ha: Rate 125 g al/ha; for pest or weed control at 500 g/ha: Rate 500 g al/ha
How it was run: (§2)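 Visual 0–100 injury rating (100 = all plants dead) taken 14 days after treatment. Rates of 125–1000 g ai/ha in acetone, 187 l/ha, were sprayed onto soil one day post-sowing; pots were surface-watered to incorporate, then bottom-watered.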

[8] = tested on: barnyardgrass (Echinochloa crusgalli, ECHCG); test: as above; settings: Echinochloa crus-galli, pre-emergence, 336 h, 14 days after application, rating scale 0-100; for pest or weed control at 125 g/ha: Rate 125 g al/ha; for pest or weed control at 500 g/ha: Rate 500 g al/ha
How it was run: as §2

[9] = tested on: large crabgrass (Digitaria sanguinalis, DIGSA); test: as above; settings: Digitaria sanguinalis, pre-emergence, 336 h, 14 days after application, rating scale 0-100; for pest or weed control at 125 g/ha: Rate 125 g al/ha; for pest or weed control at 500 g/ha: Rate 500 g al/ha
How it was run: as §2

[10] = tested on: sicklepod (Cassia obtusifolia, CASOB); test: as above; settings: Senna obtusifolia, pre-emergence, 336 h, 14 days after application, rating scale 0-100; for pest or weed control at 125 g/ha: Rate 125 g al/ha; for pest or weed control at 500 g/ha: Rate 500 g al/ha
How it was run: as §2

[11] = tested on: Johnsongrass (Sorghum halepense, SORHA); test: as above; settings: Sorghum halepense, pre-emergence, 336 h, 14 days after application, rating scale 0-100; for pest or weed control at 125 g/ha: Rate 125 g al/ha; for pest or weed control at 500 g/ha: Rate 500 g al/ha
How it was run: as §2

[12] = tested on: lambsquarters (Chenopodium album, CHEAL); test: as above; settings: Chenopodium album, pre-emergence, 336 h, 14 days after application, rating scale 0-100; for pest or weed control at 125 g/ha: Rate 125 g al/ha; for pest or weed control at 500 g/ha: Rate 500 g al/ha
How it was run: as §2

[13] = tested on: velvetleaf (Abutilon theophrasti, ABUTH); test: as above; settings: Abutilon theophrasti, pre-emergence, 336 h, 14 days after application, rating scale 0-100; for pest or weed control at 125 g/ha: Rate 125 g al/ha; for pest or weed control at 500 g/ha: Rate 500 g al/ha
How it was run: as §2

[14] = tested on: redroot pigweed (Amaranthus retroflexus, AMARE); test: as above; settings: Amaranthus retroflexus, pre-emergence, 336 h, 14 days after application, rating scale 0-100; for pest or weed control at 125 g/ha: Rate 125 g al/ha; for pest or weed control at 500 g/ha: Rate 500 g al/ha
How it was run: as §2

[15] = tested on: ivyleaf morningglory (Ipomoea hederacea, IPOHE); test: as above; settings: Ipomoea, pre-emergence, 336 h, 14 days after application, rating scale 0-100; for pest or weed control at 125 g/ha: Rate 125 g al/ha; for pest or weed control at 500 g/ha: Rate 500 g al/ha
How it was run: as §2

SMILES | pest or weed control at 63 g/ha [1] [%] | pest or weed control at 500 g/ha [1] [%] | pest or weed control at 63 g/ha [2] [%] | pest or weed control at 500 g/ha [2] [%] | pest or weed control at 63 g/ha [3] [%] | pest or weed control at 500 g/ha [3] [%] | pest or weed control at 63 g/ha [4] [%] | pest or weed control at 500 g/ha [4] [%] | pest or weed control at 63 g/ha [5] [%] | pest or weed control at 500 g/ha [5] [%] | pest or weed control at 63 g/ha [6] [%] | pest or weed control at 500 g/ha [6] [%] | pest or weed control at 125 g/ha [7] [%] | pest or weed control at 500 g/ha [7] [%] | pest or weed control at 125 g/ha [8] [%] | pest or weed control at 500 g/ha [8] [%] | pest or weed control at 125 g/ha [9] [%] | pest or weed control at 500 g/ha [9] [%] | pest or weed control at 125 g/ha [10] [%] | pest or weed control at 500 g/ha [10] [%] | also measured
Nn1c(C(F)(F)F)cc(=O)n(-c2cc(Oc3cc(C(F)(F)F)ccn3)c(Cl)cc2F)c1=O [Compound 9-8, 1-Amino-3-[4-chloro-2-fluoro-5-(4-trifluoromethyl-2-pyridyloxy)phenyl]-6-trifluoromethyl-1,2,3,4-tetrahydropyrimidine-2,4-dione] | 30 | 75 | 10 | 30 | 30 | 30 | 30 | 90 | 95 | 100 | 100 | 100 | 40 | 100 | 30 | 99 | 20 | 100 | 80 | 90 | pest or weed control at 125 g/ha [11]: 50%; pest or weed control at 500 g/ha [11]: 99%; pest or weed control at 125 g/ha [12]: 100%; pest or weed control at 500 g/ha [12]: 100%; pest or weed control at 125 g/ha [13]: 100%; pest or weed control at 500 g/ha [13]: 100%; pest or weed control at 125 g/ha [14]: 100%; pest or weed control at 500 g/ha [14]: 100%; pest or weed control at 125 g/ha [15]: 95%; pest or weed control at 500 g/ha [15]: 100%
N#Cc1cccnc1Oc1cc(-n2c(=O)cc(C(F)(F)F)n(N)c2=O)c(F)cc1Cl [Compound 9-9, 1-Amino-3-[4-chloro-2-fluoro-5-(3-cyano-2-pyridyloxy)phenyl]-6-trifluoromethyl-1,2,3,4-tetrahydropyrimidine-2,4-dione] | 20 | 90 | 10 | 90 | 90 | 100 | 40 | 100 | 90 | 100 | 100 | 100 | 100 | 100 | 100 | 100 | 100 | 100 | 100 | 100 | pest or weed control at 125 g/ha [11]: 100%; pest or weed control at 500 g/ha [11]: 100%; pest or weed control at 125 g/ha [12]: 100%; pest or weed control at 500 g/ha [12]: 100%; pest or weed control at 125 g/ha [13]: 100%; pest or weed control at 500 g/ha [13]: 100%; pest or weed control at 125 g/ha [14]: 100%; pest or weed control at 500 g/ha [14]: 100%; pest or weed control at 125 g/ha [15]: 100%; pest or weed control at 500 g/ha [15]: 100%
N#Cc1ccc(Oc2cc(-n3c(=O)cc(C(F)(F)F)n(N)c3=O)c(F)cc2Cl)nc1 [Compound 9-10, 1-Amino-3-[4-chloro-2-fluoro-5-(5-cyano-2-pyridyloxy)phenyl]-6-trifluoromethyl-1,2,3,4-tetrahydropyrimidine-2,4-dione] | 20 | 70 | 10 | 20 | 40 | 50 | 60 | 95 | 100 | 100 | 100 | 80 | 100 | 100 | 90 | 100 | 90 | 100 | 100 | 100 | pest or weed control at 125 g/ha [11]: 95%; pest or weed control at 500 g/ha [11]: 100%; pest or weed control at 125 g/ha [12]: 100%; pest or weed control at 500 g/ha [12]: 100%; pest or weed control at 125 g/ha [13]: 100%; pest or weed control at 500 g/ha [13]: 100%; pest or weed control at 125 g/ha [14]: 100%; pest or weed control at 500 g/ha [14]: 100%; pest or weed control at 125 g/ha [15]: 100%; pest or weed control at 500 g/ha [15]: 100%
Nn1c(C(F)(F)F)cc(=O)n(-c2cc(Oc3ccc([N+](=O)[O-])cn3)c(Cl)cc2F)c1=O [Compound 9-11, 1-Amino-3-[4-chloro-2-fluoro-5-(5-nitro-2-pyridyloxy)phenyl]-6-trifluoromethyl-1,2,3,4-tetrahydropyrimidine-2,4-dione] | 20 | 40 | 40 | 80 | 30 | 80 | 20 | 80 | 80 | 100 | 100 | 100 | 70 | 100 | 10 | 80 | 30 | 95 | 10 | 20 | pest or weed control at 125 g/ha [11]: 20%; pest or weed control at 500 g/ha [11]: 90%; pest or weed control at 125 g/ha [12]: 100%; pest or weed control at 500 g/ha [12]: 100%; pest or weed control at 125 g/ha [13]: 100%; pest or weed control at 500 g/ha [13]: 100%; pest or weed control at 125 g/ha [14]: 100%; pest or weed control at 500 g/ha [14]: 100%; pest or weed control at 125 g/ha [15]: 10%; pest or weed control at 500 g/ha [15]: 100%
